Source: patent US9975852B2, “Quinoline sulfonyl derivatives and uses thereof” (Health Sciences North Research Institute, priority 2013, dated 2018)

Columns and labels:
[1] = system: MDA-MB468; assay: SRB antiproliferative assay, MDA-MB468; format: cell-based, human; conditions: Homo sapiens
Method: Antiproliferative effects were determined by a sulforhodamine B (SRB) based protocol. For a typical screening experiment, 5,000-10,000 cells were inoculated into 100 μl medium per well of a 96-well microtiter plate as described previously. […] Some of the sample wells were fixed with 25 μl of 50% trichloroacetic acid (TCA) as a control of the cell population for each cell line at the time of drug addition (Tz). An aliquot of the frozen stock was thawed and diluted to the desired final maximum test-concentration with complete medium. Two to ten-fold serial dilutions were made to provide a total of seven drug concentrations (and a control [C]). Following addition of drugs, the culture plate was incubated for additional 48 h. Cells were fixed in situ by slowly adding 25 μl of ice-cold 50% (w/v) TCA (final concentration, 10% TCA), and were then incubated for 60 min at 4° C. The supernatant was discarded, and the plate was washed five times with tap water, followed by air-dry. 50 μl of SRB solution at 0.4% (w/v) in 1% acetic acid was added to each well, and the plate was incubated for >30 min at room temperature. Unbound SRB was removed by five washes with tap water, followed by air-drying. […] The relative growth rate (%) was calculated for each of the compound concentrations according to the following formula: (Ti−Tz)/(C−Tz)×100 In the formula, time zero (Tz), control growth (C), and OD for different concentration of tested compounds (Ti). The GI50 for each compound was obtained from a non-linear Sigmoidal dose-response (variable slope) curve which is fitted by GraphPad Prism™ v.4.03 software. Values were calculated for each of these parameters if the level of activity was reached. However, if the effect was not reached or was exceeded, the value for that parameter was expressed as greater or less than the maximum or minimum concentration tested. Flow Cytometry

[2] = system: MCF10A non-cancer cells; assay: Confocal microscopy of centrosomes, MCF10A non-cancer cells; format: cell-based, human; conditions: VR-23 20 μM, 3 hours post-DT
Excerpt: All immunocytochemistry experiments were visualized by confocal microscopy using a Zeiss 510 Meta laser scanning microscope (Carl Zeiss) equipped with a 63× objective lens, unless otherwise specified herein. Three lasers were utilized for excitation with the following band pass filter settings used for detection: Argon 488 nm (band pass 505-530), HeNe 543 nm (long pass 560) and 633 nm (long pass 650). All images were captured and analyzed using LSM 510 software included with the microscope (LSM Image Examiner™, Carl Zeiss).
The synchronization at the G1/S border (more accurately at the beginning of S phase) was achieved by double thymidine block (DT). Briefly, exponentially growing cells are treated with 2.0 mM thymidine for 18 hours, followed by incubation for 11 hours in drug-free complete medium, by which time most cells are at mid-late G1 phase. The cells are then incubated for another 14 hours in 2.0 mM thymidine to arrest them at the G1/S border. To arrest cells at the G2/M phase, cells were maintained for 18 hours in complete medium containing nocodazole (50 ng/ml). Both these synchronization are reversible.
MCF10A (non-cancer breast) cells synchronized at G1/S by DT were released into complete medium for 3 hours in the absence (control) or presence of VR-23 (20 μM), followed by immunostaining with an antibody specific for cyclin E (FIG. 19A) or Plk1 or Plk4 (FIG. 19B). […]

[3] = Body weight of ATH490 mice; format: in vivo; conditions: VR-23 30 mg/kg
Excerpt: D0-D25/D29 denotes day 0 to days 25/29 post-drug treatment. […] The body weights of ATH490 mice are normalized on the basis that those of day 0 are 100%.

[4] = system: Jurkat; assay: SRB antiproliferative assay, Jurkat; format: cell-based; conditions: Homo sapiens
Method: Antiproliferative effects were determined by a sulforhodamine B (SRB) based protocol. For a typical screening experiment, 5,000-10,000 cells were inoculated into 100 μl medium per well of a 96-well microtiter plate as described previously. Briefly, after the inoculation, the microtiter plate was incubated at 37° C., 5% CO2, 95% air and 100% relative humidity for 24 h, prior to addition of experimental drugs. Some of the sample wells were fixed with 25 μl of 50% trichloroacetic acid (TCA) as a control of the cell population for each cell line at the time of drug addition (Tz). An aliquot of the frozen stock was thawed and diluted to the desired final maximum test-concentration with complete medium. […] The cells “stained” with SRB were solubilized with 10 mM trizma base, and the absorbance was read on an automated plate reader at a wavelength of 515-564 nm. The relative growth rate (%) was calculated for each of the compound concentrations according to the following formula: (Ti−Tz)/(C−Tz)×100 In the formula, time zero (Tz), control growth (C), and OD for different concentration of tested compounds (Ti). […] Values were calculated for each of these parameters if the level of activity was reached. However, if the effect was not reached or was exceeded, the value for that parameter was expressed as greater or less than the maximum or minimum concentration tested. […]

[5] = system: MCF7 cells; assay: Flow cytometry, apoptosis of MCF7 cells; format: cell-based, human; conditions: VR-23 2.7 or 8.0 μM, 48 hours
Method: Asynchronous MCF7 cells were incubated for 48 hours in the absence (Sham treated control) or presence of VR-23 at 2.7 or 8.0 μM. […] (Note the sub-G1 DNA profile that is typical for apoptotic cell death.) The profiles of flow cytometry are consistent with the cell images in the corresponding upper panels (FIG. 3).

O=[N+]([O-])c1ccc(S(=O)(=O)N2CCN(c3ccnc4cc(Cl)ccc34)CC2)c([N+](=O)[O-])c1 [Compound 1, 7-Chloro-4-(4-(2,4-dinitrophenylsulfonyl)piperazin-1-yl)quinoline]
IC50 ([1]; MDA-MB-468): 700 ± 100 nM
GI50 ([1]; MDA-MB-468, 48 h): 700 ± 100 nM
Centrosome amplification in MCF10A [2]: did not cause centrosome amplification
Toxic effect by body weight [3]: did not show any notable toxic effect
IC50 [4]: 800 ± 100 nM
Apoptosis (sub-G1 DNA profile) [5]: caused apoptosis
